# According to patent publication US11028085B2, “Substituted isoindolin-1-ones and 2,3-dihydro-1h-pyrrolo[3,4-c]pyridin-1-ones as hpk1 antagonists” (Nimbus Saturn, Inc., priority 2019, dated 2021):
# Biological target: HPK1 (Homo sapiens (Human), UniProt Q92918)
# Experiment: HPK1 biochemical enzyme assay (microfluidic mobility shift assay)
# Settings: 1.5 nM HPK1, ATP 1 mM final, 60 min at RT, Caliper EZ Reader; read-out: HPK1 1000UMATP caliper IC50
# Description: HPK1 biochemical enzyme assay: HPK1 enzyme inhibition was measured using a microfluidic mobility shift assay. […] Test compounds were titrated in ten point curves (top final assay concentration […]), and preincubated with enzyme/substrate mix for 30 min prior to initiation of the reaction by addition of ATP (1 mM final concentration) and substrate (1 μM final concentration; Carna Biosciences) diluted in assay buffer supplemented by MgCl2 (final assay concentration of 5 mM). Following 60 min incubation at RT, the reaction was terminated by addition of 60 µl/well termination buffer (Carna Biosciences) and signal determination using a Caliper EZ Reader (Perkin Elmer, UK). […] The compound numbers correspond to the compound numbers in Table 1.
# Chain of HPK1 (Q92918 whole entry): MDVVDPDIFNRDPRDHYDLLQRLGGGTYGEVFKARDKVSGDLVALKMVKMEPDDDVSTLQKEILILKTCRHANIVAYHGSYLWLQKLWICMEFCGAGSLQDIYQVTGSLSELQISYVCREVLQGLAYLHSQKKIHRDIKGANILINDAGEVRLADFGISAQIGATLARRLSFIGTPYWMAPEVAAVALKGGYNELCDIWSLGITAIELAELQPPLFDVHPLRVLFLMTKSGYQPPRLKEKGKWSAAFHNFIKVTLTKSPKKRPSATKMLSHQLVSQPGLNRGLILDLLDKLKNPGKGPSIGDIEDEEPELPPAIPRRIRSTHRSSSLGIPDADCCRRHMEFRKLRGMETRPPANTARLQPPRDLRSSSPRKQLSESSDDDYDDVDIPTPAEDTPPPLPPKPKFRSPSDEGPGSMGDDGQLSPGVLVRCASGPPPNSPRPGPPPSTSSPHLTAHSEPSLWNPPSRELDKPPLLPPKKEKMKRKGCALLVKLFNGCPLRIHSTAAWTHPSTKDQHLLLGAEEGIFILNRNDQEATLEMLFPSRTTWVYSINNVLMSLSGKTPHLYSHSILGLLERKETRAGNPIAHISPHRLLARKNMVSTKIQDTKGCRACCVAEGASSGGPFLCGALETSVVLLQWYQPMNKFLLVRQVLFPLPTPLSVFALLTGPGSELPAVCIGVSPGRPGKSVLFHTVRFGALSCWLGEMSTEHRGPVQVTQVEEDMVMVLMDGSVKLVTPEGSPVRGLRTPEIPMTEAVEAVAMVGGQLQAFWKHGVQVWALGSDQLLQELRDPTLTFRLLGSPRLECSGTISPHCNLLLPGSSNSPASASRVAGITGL
row,Molecule,IC50
1,"7-((5-(4-hydroxypiperidin-1-yl)pyridin-2-yl)amino)-4-(imidazo[1,2-a]pyrazin-5-yl)-2,3-dihydro-1H-pyrrolo[3,4-c]pyridin-1-one [I-376]",100 to 1000 nM
2,"7-((5-((3R,4R)-4-fluoro-3-hydroxypiperidin-1-yl)pyridin-2-yl)amino)-4-(imidazo[1,2-a]pyrazin-3-yl)isoindolin-1-one [I-434]",< 100 nM
3,"CN(C)Cc1nc(Nc2cnc(-c3cccc4c3ccn4C)c3c2C(=O)NC3)ccc1[C@@H]1CCOC1 (single isomer, unassigned) [I-540]",< 100 nM
4,"CC1NC(=O)c2c(Nc3ccc(N4CCC(O)CC4)cn3)ccc(-c3ccnc4c3ccn4C)c21 (stereo in doubt) [I-287, (R)-7-((5-(4-hydroxypiperidin-1-yl)pyridin-2-yl)amino)-3-methyl-4-(1-methyl-1H-pyrrolo[2,3-b]pyridin-4-yl)isoindolin-1-one]",< 100 nM
5,"Cc1ccn2c(-c3ccc(Nc4ccc([C@H]5CCOC5)c(CN(C)C)n4)c4c3CNC4=O)cnc2n1 (stereo in doubt) [I-561, 7-[[6-[(dimethylamino)-methyl]-5-tetralndrofliran-3-yl-2-pyridyl]amino] 4-(7-methylimidazo [1,2-a]pyrimidin-3-yl)isoindolin-1-one]",< 100 nM
6,"Cc1cccn2c(-c3ccc(Nc4ccc(C5CCOC5)c(CN(C)C)n4)c4c3CNC4=O)cnc12 (stereo in doubt) [I-696, (R)-7-((6-((dimethylamino)-methyl)-5-(tetrahydrofuran-3-yl)pyridin-2-yl)amino)-4-(8-methylimidazo [1,2-a]pyridin-3-yl)isoindolin-1-one]",< 100 nM
7,"COCC1CN(c2ccc(Nc3ccc(-c4cnc5cc(F)ccn45)c4c3C(=O)NC4)nc2CN(C)C)CCO1 (stereo in doubt) [I-711, (R)-7-((6-((dimethylamino)-methyl)-5-(2-(methoxymeth-yl)morpholino)pyridin-2-yl)amino)-4-(7-fluoroimidazo [1,2-a]pyridin-3-yl)isoindolin-1-one]",< 100 nM
8,"O=C1NCc2c(-c3cnc4ccccn34)ccc(Nc3ccc(N4CCC(O)CC4)cn3)c21 [I-125, 7-[[5-(4-hydroxy-1-piperidyl)-2-pyridyl]amino]-4-imidazo[1,2-a]pyridin-3-yl-isoindolin-1-one]",< 100 nM
9,"O=C1NCc2c(-c3cnc4cc(CO)ccn34)ccc(Nc3ccc(N4CCC(O)CC4)cn3)c21 [I-177, 4-[7-(hydroxymeth-yl)imidazo[1,2-a]pyridin-3-yl]-7-[[5-(4-hydroxy-1-piperidyl)-2-pyripyl]amino] isoindolin-1-one]",< 100 nM

# Next, values leading:
row,IC50,Molecule
1,> 1000 nM,"CC1NC(=O)c2c(Nc3ccc(N4CCC(O)CC4)cn3)ccc(-c3ccnc4c3ccn4C)c21 (stereo in doubt) [I-286, (S)-7-((5-(4-hydroxypiperidin-1-yl)pyridin-2-yl)amino)-3-methyl-4-(1-methyl-1H-pyrrolo[2,3-b]pyridin-4-yl)isoindolin-1-one]"
2,< 100 nM,"Cc1cccn2c(-c3ccc(Nc4ccc(C5CCOC5)c(CN(C)C)n4)c4c3CNC4=O)cnc12 (stereo in doubt) [I-695, (S)-7-((6-((dimethylamino)-methyl)-5-(tetrahydrofuran-3-yl)pyridin-2-yl)amino)-4-(8-methylimidazo [1,2-a]pyridin-3-yl)isoindolin-1-one]"
3,< 100 nM,O=C1NCc2c(-c3cnc4cc(F)ccn34)ccc(Nc3ccc(N4CCC(O)CC4)cn3)c21 [I-138]
4,< 100 nM,"Cc1cnc2c(-c3ccc(Nc4ccc(N5CCC(O)CC5)cn4)c4c3CNC4=O)cnn2c1 [I-186, 7-[[5-(4-hydroxy-1-piperidyl)-2-pyridyl)amino]-4-(6-methylpyra-zolo[1,5-a]pyrimidin-3-yl)isoindolin-1-one]"
5,100 to 1000 nM,"O=C1NCc2c(-c3cnc4ccccn34)ncc(Nc3ccc(N4CCOCC4)cn3)c21 [I-198, 4-imidazo[1,2-a]pyridin-3-yl-7-[(5-morpholino-2-pyridyl)-amino]-2,3-dihydropyrrolo [3,4-c]pyridin-1-one]"
